23 compounds from patent US11008317B2, “Triazolopyridine inhibitors of myeloperoxidase and/or EPX” (priority 2016, dated 2021) can be followed below.

The structures appear in SMILES notation. pIC50: −log10 of the molar value. Counter-ions that a name gives are not always drawn.

Broadly, the pIC50 is −log10 of the IC50, conventionally taken in molar units.

Assay [1] deals with T1, myeloperoxidase (Homo sapiens, UniProt P05164).
T1 sequence (P05164 49-745): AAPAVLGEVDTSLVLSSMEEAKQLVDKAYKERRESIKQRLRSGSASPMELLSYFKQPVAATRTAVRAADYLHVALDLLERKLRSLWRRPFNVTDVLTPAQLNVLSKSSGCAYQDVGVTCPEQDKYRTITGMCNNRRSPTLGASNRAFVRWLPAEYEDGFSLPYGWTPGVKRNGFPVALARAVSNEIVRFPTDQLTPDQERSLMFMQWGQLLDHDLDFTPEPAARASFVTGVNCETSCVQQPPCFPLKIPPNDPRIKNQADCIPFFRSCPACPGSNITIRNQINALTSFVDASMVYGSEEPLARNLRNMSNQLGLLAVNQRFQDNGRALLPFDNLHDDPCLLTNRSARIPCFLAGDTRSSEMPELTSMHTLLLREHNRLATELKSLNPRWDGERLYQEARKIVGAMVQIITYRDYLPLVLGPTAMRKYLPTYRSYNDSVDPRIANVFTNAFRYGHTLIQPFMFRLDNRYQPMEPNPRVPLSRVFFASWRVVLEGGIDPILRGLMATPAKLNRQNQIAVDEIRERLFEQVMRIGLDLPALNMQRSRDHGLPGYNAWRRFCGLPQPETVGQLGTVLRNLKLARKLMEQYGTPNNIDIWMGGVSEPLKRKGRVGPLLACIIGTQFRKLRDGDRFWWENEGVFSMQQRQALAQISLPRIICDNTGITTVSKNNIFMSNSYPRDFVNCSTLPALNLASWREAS
In words: MPO Peroxidation Assay (Amplex Red Assay). The note with it: potency range class, read-out: Amplex Red Assay IC50 value. Type of assay: biochemical.

Assay [2] has as its target T1, myeloperoxidase. In words: MPO Chlorination Assay (APF Assay). Type of assay: biochemical. Conditions: potency range class, read-out: APF Assay IC50 value.

`Nc1cc(C(CCNS(=O)(=O)c2ccccc2)c2ccccc2)c2nn[nH]c2n1` (stereo not shown) [Example 15, N-(3-(5-amino-3H-[1,2,3]triazolo[4,5-b]pyridin-7-yl)-3-phenylpropyl)benzenesulfonamide, TFA]: the pIC50 at myeloperoxidase [1] was 7.00 to 9.00; on myeloperoxidase [2], 6.00 to 7.00.
As for `Nc1cc(C(CCNCc2ccc3ccccc3c2)c2ccccc2)c2nn[nH]c2n1` (stereo not shown) [Example 16, 7-(3-{[(naphthalen-2-yl)methyl]amino}-1-phenylpropyl)-3H-[1,2,3]triazolo[4,5-b] pyridin-5-amine], the pIC50 on myeloperoxidase [1] was 6.00 to 7.00; at myeloperoxidase [2] it was 7.00 to 9.00.
As to `Nc1cc(C(CCNCc2cccc3ccccc23)c2ccccc2)c2nn[nH]c2n1` (stereo not shown) [Example 17, 7-(3-((naphthalen-1-ylmethyl)amino)-1-phenylpropyl)-3H-[1,2,3]triazolo[4,5-b]pyridin-5-amine], the pIC50 was 6.00 to 7.00 at myeloperoxidase [1] and 7.00 to 9.00 on myeloperoxidase [2].
For the compound `CC(C)(C)CNCCC(c1ccccc1)c1cc(N)nc2[nH]nnc12` (stereo not shown) [Example 20, 7-{3-[(2,2-dimethylpropyl)amino]-1-phenylpropyl}-3H-[1,2,3]triazolo[4,5-b]pyridin-5-amine], the pIC50 on myeloperoxidase [1] was 6.00 to 7.00; at myeloperoxidase [2], 5.00 to 6.00.
For `Nc1cc(C(CCNC23CC4CC(CC(C4)C2)C3)c2ccccc2)c2nn[nH]c2n1` (stereo not shown) [Example 21, 7-{3-[(adamantan-1-yl)amino]-1-phenylpropyl}-3H-[1,2,3]triazolo[4,5-b]pyridin-5-amine], the pIC50 at myeloperoxidase [1] and on myeloperoxidase [2] was 6.00 to 7.00 each time.
Take `Nc1cc(C(CCNCC23CC4CC(CC(C4)C2)C3)c2ccccc2)c2nn[nH]c2n1` (stereo not shown) [Example 22, 7-(3-{[(adamantan-1-yl)methyl]amino}-1-phenylpropyl)-3H-[1,2,3]triazolo[4,5-b] pyridin-5-amine]: the pIC50 at myeloperoxidase [1] and on myeloperoxidase [2] was 6.00 to 7.00 in each case.
`Nc1cc(C(CCNCC2CCCCC2)c2ccccc2)c2nn[nH]c2n1` (stereo not shown) [Example 23, 7-{3-[(cyclohexylmethyl)amino]-1-phenylpropyl}-3H-[1,2,3]triazolo[4,5-b] pyridin-5-amine]: the negative-log IC50 (pIC50) at myeloperoxidase [1] and at myeloperoxidase [2] was 6.00 to 7.00 in each case.
As for `Nc1cc(C(CCNC(c2ccccc2)C(F)(F)F)c2ccccc2)c2nn[nH]c2n1` (stereo not shown) [Example 24, 7-{1-phenyl-3-[(2,2,2-trifluoro-1-phenylethyl)amino]propyl}-3H-[1,2,3]triazolo[4,5-b]pyridin-5-amine], the negative-log IC50 (pIC50) at myeloperoxidase [1] was 6.00 to 7.00; on myeloperoxidase [2], 5.00 to 6.00.
With `Nc1cc(C(CCNC2CCCc3ccccc32)c2ccccc2)c2nn[nH]c2n1` (stereo not shown) [Example 25, 7-{1-phenyl-3-[(1,2,3,4-tetrahydronaphthalen-1-yl)amino]propyl}-3H-[1,2,3] triazolo[4,5-b] pyridin-5-amine], the pIC50 is 6.00 to 7.00 on myeloperoxidase [1] and 7.00 to 9.00 at myeloperoxidase [2].
On the same counts, the results for `Cc1cccc(C)c1CNCCC(c1ccccc1)c1cc(N)nc2[nH]nnc12` (stereo not shown) [Example 27, 7-(3-{[(2,6-dimethylphenyl)methyl]amino}-1-phenylpropyl)-3H-[1,2,3]triazolo[4,5-b] pyridin-5-amine] are 6.00 to 7.00 and 6.00 to 7.00.
Taken in the same sequence, the figures for `Nc1cc(C(CCNC2CCCc3ccccc32)c2ccccc2)c2nn[nH]c2n1` (stereo not shown) [Example 28, 7-{1-phenyl-3-[(1,2,3,4-tetrahydronaphthalen-1-yl)amino]propyl}-3H-[1,2,3]triazolo [4,5-b]pyridin-5-amine] were 7.00 to 9.00 and 7.00 to 9.00.
On to `Nc1cc(C(CCNC2CCCc3ccccc32)c2ccccc2)c2nn[nH]c2n1` (stereo not shown) [Example 29, 7-{1-phenyl-3-[(1,2,3,4-tetrahydronaphthalen-1-yl)amino]propyl}-3H-[1,2,3]triazolo [4,5-b]pyridin-5-amine], for which the pIC50 at myeloperoxidase [1] and on myeloperoxidase [2] was 7.00 to 9.00 each time.
Consider `Nc1cc(C(Cc2ccccn2)c2ccccc2)c2nn[nH]c2n1` (stereo not shown) [Example 38, 7-(1-phenyl-2-(pyridin-2-yl)ethyl)-3H-[1,2,3]triazolo[4,5-b]pyridin-5-amine], for which the pIC50 at myeloperoxidase [1] and at myeloperoxidase [2] was 6.00 to 7.00 in each case.
As to `Nc1cc(C(CCNC(=O)c2ccccc2)c2ccccc2)c2nn[nH]c2n1` (stereo not shown) [Example 39, N-(3-(5-amino-3H-[1,2,3]triazolo[4,5-b]pyridin-7-yl)-3-phenylpropyl)benzamide], the negative-log IC50 (pIC50) at myeloperoxidase [1] is 6.00 to 7.00; on myeloperoxidase [2] it was 5.00 to 6.00.
`Nc1cc(C(CCNC2Cc3ccccc3C2)c2ccccc2)c2nn[nH]c2n1` (stereo not shown) [Example 41, 7-{3-[(2,3-dihydro-1H-inden-2-yl)amino]-1-phenylpropyl}-3H-[1,2,3]triazolo[4,5-b]pyridin-5-amine]: the pIC50 at myeloperoxidase [1] and at myeloperoxidase [2] was 6.00 to 7.00 throughout.
Regarding `Nc1cc(C(CCNC(Cc2ccccc2)c2ccccc2)c2ccccc2)c2nn[nH]c2n1` (stereo not shown) [Example 45, 7-{3-[(1,2-diphenylethyl)amino]-1-phenylpropyl}-3H-[1,2,3]triazolo[4,5-b] pyridin-5-amine], the negative logarithm of the IC50 (pIC50) at myeloperoxidase [1] and at myeloperoxidase [2] was 6.00 to 7.00 each time.
Take `Nc1cc(C(CCNC2c3ccccc3CC2c2ccccc2)c2ccccc2)c2nn[nH]c2n1` (stereo not shown) [Example 46, 7-{1-phenyl-3-[(2-phenyl-2,3-dihydro-1H-inden-1-yl)amino]propyl}-3H-[1,2,3]triazolo [4,5-b]pyridin-5-amine]: the pIC50 on myeloperoxidase [1] and on myeloperoxidase [2] was 6.00 to 7.00 throughout.
Turning to `Nc1cc(C(CCNC(Cc2ccccc2)c2ccccc2)c2ccccc2)c2nn[nH]c2n1` (stereo not shown) [Example 47, 7-{3-[(1,2-diphenylethyl)amino]-1-phenylpropyl}-3H-[1,2,3]triazolo[4,5-b]pyridin-5-amine], the pIC50 on myeloperoxidase [1] was 5.00 to 6.00; at myeloperoxidase [2] it was 6.00 to 7.00.
In the case of `Nc1cc(C(CCNC(Cc2ccccc2)c2ccccc2)c2ccccc2)c2nn[nH]c2n1` (stereo not shown) [Example 48, 7-{3-[(1,2-diphenylethyl)amino]-1-phenylpropyl}-3H-[1,2,3]triazolo[4,5-b]pyridin-5-amine], the pIC50 at myeloperoxidase [1] was 6.00 to 7.00; at myeloperoxidase [2], 7.00 to 9.00.
For `Nc1cc(C(CCNCc2cccc(C(F)(F)F)c2)c2ccccc2)c2nn[nH]c2n1` (stereo not shown) [Example 53, 7-[1-phenyl-3-({[3-(trifluoromethyl)phenyl]methyl}amino)propyl]-3H-[1,2,3]triazolo[4,5-b]pyridin-5-amine], the negative-log IC50 (pIC50) at myeloperoxidase [1] and at myeloperoxidase [2] was 6.00 to 7.00 each time.
In the case of `Nc1cc(C(CCNCc2ccc(C(F)(F)F)cc2)c2ccccc2)c2nn[nH]c2n1` (stereo not shown) [Example 54, 7-[1-phenyl-3-({[4-(trifluoromethyl)phenyl]methyl}amino)propyl]-3H-[1,2,3]triazolo[4,5-b]pyridin-5-amine], the pIC50 on myeloperoxidase [1] and on myeloperoxidase [2] was 6.00 to 7.00 in each case.
As to `Nc1cc(C(CCNC2c3ccccc3CC2c2ccccc2)c2ccccc2)c2nn[nH]c2n1` (stereo not shown) [Example 55, 7-{1-phenyl-3-[(2-phenyl-2,3-dihydro-1H-inden-1-yl)amino]propyl}-3H-[1,2,3] triazolo[4,5-b] pyridin-5-amine], the figures for the pIC50 on myeloperoxidase [1] and at myeloperoxidase [2] were 5.00 to 6.00 and 6.00 to 7.00, respectively.
Taken in the same sequence, the figures for `Nc1cc(C(CCNC2c3ccccc3CC2c2ccccc2)c2ccccc2)c2nn[nH]c2n1` (stereo not shown) [Example 56, 7-{1-phenyl-3-[(2-phenyl-2,3-dihydro-1H-inden-1-yl)amino]propyl}-3H-[1,2,3]triazolo[4,5-b] pyridin-5-amine] were 6.00 to 7.00 and 7.00 to 9.00.
